Data published in patent US20250230153A1, “2,3-DIHYDROBENZO[B][1,4]DIOXIN-6-YL CONTAINING COMPOUNDS USEFUL AS IMMUNOMODULATORS” (BRISTOL-MYERS SQUIBB COMPANY, priority 2021, published 2025).
Counter-ions that a name gives are not always drawn.

Target: PD-1/PD-L1 (Homo sapiens (Human), UniProt Q9NZQ7)
Test: PD-1/PD-L1 Homogenous Time-Resolved Fluorescence (HTRF) binding assay
Conditions: PD-1-Ig (20 nM final)/PD-L1-His (10 nM final) binding assay
From the text: The ability of the compounds of the invention to bind to PD-L1 was investigated using a PD-1/PD-L1 Homogenous Time-Resolved Fluorescence (HTRF) binding assay.
The interaction of PD-1 and PD-L1 can be assessed using soluble, purified preparations of the extracellular domains of the two proteins. The PD-1 and PD-L1 protein extracellular domains were expressed as fusion proteins with detection tags, for PD-1, the tag was the Fc portion of Immunoglobulin (PD-1-Ig) and for PD-L1 it was the 6 histidine motif (PD-L1-His). All binding studies were performed in an HTRF assay buffer consisting of dPBS supplemented with 0.1% […] bovine serum albumin and 0.05% (v/v) Tween-20. For the h/PD-L1-His binding assay, inhibitors were pre-incubated with PD-L1-His (10 nM final) for 15m in 4 μl of assay buffer, followed by addition of PD-1-Ig (20 nM final) in 1 μl of assay buffer and further incubation for 15 m. HTRF detection was achieved using europium crypate-labeled anti-Ig (1 nM final) and allophycocyanin (APC) labeled anti-His (20 nM final). Antibodies were diluted in HTRF detection buffer and 5 μl was dispensed on top of the binding reaction. The reaction mixture was allowed to equilibrate for 30 minutes and the resulting signal (665 nm/620 nm ratio) was obtained using an EnVision fluorometer. Additional binding assays were established between the human proteins PD-1-Ig/PD-L2-His (20 & 5 nM, respectively) and CD80-His/PD-L1-Ig (100 & 10 nM, respectively).
Recombinant Proteins: Human PD-1 (25-167) with a C-terminal human Fc domain of immunoglobulin G (Ig) epitope tag [hPD-1 (25-167)-3S-IG] and human PD-L1 (18-239) with a C-terminal His epitope tag [hPD-L1(18-239)-TVMV-His] were expressed in HEK293T cells and purified sequentially by ProteinA affinity chromatography and size exclusion chromatography. Human PD-L2-His and CD80-His was obtained through commercial sources.
Homogenous Time-Resolved Fluorescence (HTRF) Assays of Binding of Soluble PD-1 to Soluble PD-L1. Soluble PD-1 and soluble PD-L1 refers to proteins with carboxyl-end truncations that remove the transmembrane-spanning regions and are fused to heterologous sequences, specifically the Fc portion of the human immunoglobuling G sequence (Ig) or the hexahistidine epitope tag (His). All binding studies were performed in an HTRF assay buffer consisting of dPBS supplemented with 0.1% (w/v) bovine serum albumin and 0.05% (v/v) Tween-20. For the PD-1-Ig/PD-L1-His binding assay, inhibitors were pre-incubated with PD-L1-His (10 nM final) for 15m in 4 μl of assay buffer, followed by addition of PD-1-Ig (20 nM final) in 1 μl of assay buffer and further incubation for 15 m. PD-L1 fusion proteins from either human, cynomologous macaques, mouse, or other species were used. HTRF detection was achieved using europium crypate-labeled anti-Ig monoclonal antibody (1 nM final) and allophycocyanin (APC) labeled anti-His monoclonal antibody (20 nM final). Antibodies were diluted in HTRF detection buffer and 5 μl was dispensed on top of binding reaction. The reaction was allowed to equilibrate for 30 minutes and signal (665 nm/620 nm ratio) was obtained using an EnVision fluorometer. Additional binding assays were established between PD-1-Ig/PD-L2-His (20 and 5 nM, respectively), CD80-His/PD-L1-Ig (100 and 10 nM, respectively) and CD80-His/CTLA4-Ig (10 and 5 nM, respectively).
Recombinant Proteins. Carboxyl-truncated human PD-1 (amino acids 25-167) with a C-terminal human Ig epitope tag [hPD-1 (25-167)-3S-IG] and human PD-L1 (amino acids 18-239) with a C-terminal His epitope tag [hPD-L1(19-239)-tobacco vein mottling virus protease cleavage site (TVMV)-His] were expressed in HEK293T cells and purified sequentially by recombinant Protein A affinity chromatography and size exclusion chromatography. Human PD-L2-His (Sino Biologicals), CD80-His (Sino Biologicals), CTLA4-Ig (RnD Systems) were all obtained through commercial sources.

Sequence of PD-1/PD-L1 (Q9NZQ7 18-239): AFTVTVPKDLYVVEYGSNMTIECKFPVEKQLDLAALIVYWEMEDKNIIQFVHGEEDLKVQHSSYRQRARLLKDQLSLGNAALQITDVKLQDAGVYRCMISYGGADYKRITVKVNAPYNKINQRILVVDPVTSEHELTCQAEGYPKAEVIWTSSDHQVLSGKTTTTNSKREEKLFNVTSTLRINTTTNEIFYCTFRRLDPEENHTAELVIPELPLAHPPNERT

SMILES	IC50
Cc1c(COc2cc(OCc3cccc(CN)c3)c(CN3CCCC[C@H]3C(=O)O)cc2Cl)cccc1-c1ccc2c(c1)OCCO2 [Example 1017, (S)-1-(2-((3-(Aminomethyl)benzyl)oxy)-5-chloro-4-((3-(2,3-dihydrobenzo[b][1,4]dioxin-6-yl)-2-methylbenzyl)oxy)benzyl)piperidine-2-carboxylic acid, bis-trifluoroacetic acid salt]	20.2 nM
Cc1c(COc2cc(OCc3cnn(CC(=O)O)c3)c(CN[C@@](C)(CO)C(=O)O)cc2Cl)cccc1-c1ccc2c(c1)OCCO2 [Example 1016, (S)-2-((2-((1-(Carboxymethyl)-1H-pyrazol-4-yl)methoxy)-5-chloro-4-((3-(2,3-dihydrobenzo[b][1,4]dioxin-6-yl)-2-methylbenzyl)oxy)benzyl)amino)-3-hydroxy-2-methylpropanoic acid]	5.4 nM
Cc1c(COc2cc(OCc3cncc(S(=O)(=O)NCCC(=O)O)c3)c(CN[C@@](C)(CO)C(=O)O)cc2Cl)cccc1-c1ccc2c(c1)OCCO2 [Example 1020, (S)-2-((2-((5-(N-(2-Carboxyethyl)sulfamoyl)pyridin-3-yl)methoxy)-5-chloro-4-((3-(2,3-dihydrobenzo[b]1[1,4]dioxin-6-yl)-2-methylbenzyl)oxy)benzyl)amino)-3-hydroxy-2-methylpropanoic acid]	3.1 nM
Cc1c(COc2cc(OCCCN(C)C)c(CN[C@@H](CO)C(=O)O)cc2Cl)cccc1-c1ccc2c(c1)OCCO2 [Example 2002, (S)-2-((5-chloro-4-((3-(2,3-dihydrobenzo[b][1,4]dioxin-6-yl)-2-methylbenzyl)oxy)-2-(3-(dimethylamino)propoxy)benzyl)amino)-3-hydroxypropanoic acid]	6.5 nM
Cc1c(COc2cc(OCc3cncc(SCCC(=O)O)c3)c(CN[C@@](C)(CO)C(=O)O)cc2Cl)cccc1-c1ccc2c(c1)OCCO2 [Example 1014, (S)-2-((2-((5-((2-Carboxyethyl)thio)pyridin-3-yl)methoxy)-5-chloro-4-((3-(2,3-dihydrobenzo[b][1,4]dioxin-6-yl)-2-methylbenzyl)oxy)benzyl)amino)-3-hydroxy-2-methylpropanoic acid]	6.6 nM
Cc1c(COc2cc(OCc3cncc(SCc4ccccc4)c3)c(CN3CCCC[C@H]3C(=O)O)cc2Cl)cccc1-c1ccc2c(c1)OCCO2 [Example 1010, (S)-1-(2-((5-(Benzylthio)pyridin-3-yl)methoxy)-5-chloro-4-((3-(2,3-dihydrobenzo [b][1,4]dioxin-6-yl)-2-methylbenzyl)oxy)benzyl)piperidine-2-carboxylic acid]	43.4 nM
COC(=O)C1(O)CCN(CCOc2cc(OCc3cccc(-c4ccc5c(c4)OCCO5)c3C)c(Cl)cc2CN2CCCC[C@H]2C(=O)O)CC1 [Example 1051, (S)-1-(5-Chloro-4-((3-(2,3-dihydrobenzo[b][1,4]dioxin-6-yl)-2-methylbenzyl)oxy)-2-(2-(4-hydroxy-4-(methoxycarbonyl)piperidin-1-yl)ethoxy)benzyl)piperidine-2-carboxylic acid]	1 nM
COC(=O)CCSc1cncc(COc2cc(OCc3cccc(-c4ccc5c(c4)OCCO5)c3C)c(Cl)cc2CN[C@@](C)(CO)C(=O)O)c1 [Example 1006, (S)-2-((5-Chloro-4-((3-(2,3-dihydrobenzo[b][1,4]dioxin-6-yl)-2-methylbenzyl)oxy)-2-((5-((3-methoxy-3-oxopropyl)thio)pyridin-3-yl)methoxy)benzyl)amino)-3-hydroxy-2-methylpropanoic acid]	1.1 nM
Cc1c(COc2cc(OCCCC(F)(F)F)c(CN3CCCC[C@H]3C(=O)O)cc2Cl)cccc1-c1ccc2c(c1)OCCO2 [Example 1028, (S)-1-(5-Chloro-4-((3-(2,3-dihydrobenzo[b][1,4]dioxin-6-yl)-2-methylbenzyl)oxy)-2-(4,4,4-trifluorobutoxy)benzyl)piperidine-2-carboxylic acid]	1.8 nM
Cc1c(COc2cc(OCc3cnn(-c4ccccn4)c3)c(CN[C@@](C)(CO)C(=O)O)cc2Cl)cccc1-c1ccc2c(c1)OCCO2 [Example 1011, (S)-2-((5-Chloro-4-((3-(2,3-dihydrobenzo[b][1,4]dioxin-6-yl)-2-methylbenzyl)oxy)-2-((1-(pyridin-2-yl)-1H-pyrazol-4-yl)methoxy)benzyl)amino)-3-hydroxy-2-methylpropanoic acid]	11 nM

Continued, values first:

IC50	SMILES
3.4 nM	Cc1c(COc2cc(OC[C@@H](C)CO)c(CN[C@](C)(CO)C(=O)O)cc2Cl)cccc1-c1ccc2c(c1)OCCO2 [Example 1035, (R)-2-((5-chloro-4-((3-(2,3-dihydrobenzo[b][1,4]dioxin-6-yl)-2-methylbenzyl)oxy)-2-((S)-3-hydroxy-2-methylpropoxy)benzyl)amino)-3-hydroxy-2-methylpropanoic acid]
0.6 nM	Cc1c(COc2cc(OCCN3CCC(O)(C(=O)O)CC3)c(CNC(C)(CO)CO)cc2Cl)cccc1-c1ccc2c(c1)OCCO2 [Example 1056, 1-(2-(4-Chloro-5-((3-(2,3-dihydrobenzo[b][1,4]dioxin-6-yl)-2-methylbenzyl)oxy)-2-(((1,3-dihydroxy-2-methylpropan-2-yl)amino)methyl)phenoxy)ethyl)-4-hydroxypiperidine-4-carboxylic acid]
1.4 nM	COC(=O)C1(O)CCN(CCOc2cc(OCc3cccc(-c4ccc5c(c4)OCCO5)c3C)c(Cl)cc2CNC(C)(CO)CO)CC1 [Example 1053, Methyl 1-(2-(4-chloro-5-((3-(2,3-dihydrobenzo[b][1,4]dioxin-6-yl)-2-methylbenzyl)oxy)-2-(((1,3-dihydroxy-2-methylpropan-2-yl)amino)methyl)phenoxy)ethyl)-4-hydroxypiperidine-4-carboxylate]
50.5 nM	Cc1c(COc2cc(OCC3CCCCC3)c(CNC(C)(CO)CO)cc2Cl)cccc1-c1ccc2c(c1)OCCO2 [Example 1041, 2-((5-Chloro-2-(cyclohexylmethoxy)-4-((3-(2,3-dihydrobenzo[b][1,4]dioxin-6-yl)-2-methylbenzyl)oxy)benzyl)amino)-2-methylpropane-1,3-diol]
0.5 nM	Cc1c(COc2cc(OCCN3CC[C@@H](O)C3)c(CNC(C)(CO)CO)cc2Cl)cccc1-c1ccc2c(c1)OCCO2 [Example 1024, (R)-2-((5-Chloro-4-((3-(2,3-dihydrobenzo[b][1,4]dioxin-6-yl)-2-methylbenzyl)oxy)-2-(2-(3-hydroxypyrrolidin-1-yl)ethoxy)benzyl)amino)-2-methylpropane-1,3-diol]
14.7 nM	Cc1c(COc2cc(OC[C@H](C)CO)c(CN3CCCC[C@H]3C(=O)O)cc2Cl)cccc1-c1ccc2c(c1)OCCO2 [Example 1031, (S)-1-(5-Chloro-4-((3-(2,3-dihydrobenzo[b][1,4]dioxin-6-yl)-2-methylbenzyl)oxy)-2-((R)-3-hydroxy-2-methylpropoxy)benzyl)piperidine-2-carboxylic acid]
26.5 nM	Cc1c(COc2cc(OCC3CNCCO3)c(CN3CCCC[C@H]3C(=O)O)cc2Cl)cccc1-c1ccc2c(c1)OCCO2 (stereo partly drawn) [Example 2011, (2S)-1-(5-Chloro-4-((3-(2,3-dihydrobenzo[b][1,4]dioxin-6-yl)-2-methylbenzyl)oxy)-2-(morpholin-2-ylmethoxy)benzyl)piperidine-2-carboxylic acid acetic acid salt]
